Test results from publication PMC4077696 (PLoS Biology, 2014).
Entries after “also recorded” stand apart in the source; their conditions may differ. Where a name gives a salt, the structure may show the parent alone.

Key:
PfPMV = PfPMV (Plasmodium falciparum, UniProt Q8I6Z5); assay: PEXEL cleavage assay with immunopurified PfPMVHA and fluorogenic KAHRP PEXEL peptide; format: biochemical
Experimental: To investigate PvPMVHA activity, we affinity purified it, as well as the PfPMVHA control, using anti-HA agarose, as previously described,[18]. […] The proteins were incubated with a fluorogenic peptide of nine amino acids that contained the PEXEL sequence from knob-associated histidine-rich protein (KAHRP), and efficient processing was observed by both enzymes (Figure 1E). Cleavage of KAHRP by PfPMVHA was previously shown to occur after Leu (RTL↓) by mass spectrometry, and this position was also confirmed for PvPMVHA (Figure S2B–E). […] In contrast, no processing was observed when the PEXEL Arg and Leu residues were mutated to Ala (ATAAQ), consistent with the substrate specificity of PfPMV (Figure 1E). To verify that processing was due to HA-tagged PMV rather than other co-precipitated proteases, we expressed in P. falciparum a mutant of PvPMVHA or PfPMVHA [13], where one or both catalytic Asp residues were mutated to Ala (see Figure 1A,B). Following affinity purification, the mutant enzymes were incubated with KAHRP PEXEL peptides, but no processing was observed (Figure 1E; blue, white), confirming that the PEXEL-dependent cleavage activity observed for each protease was attributable only to HA-tagged PMV.
Each compound was incubated with PfPMVHA in the presence of KAHRP PEXEL peptides.
PMV-agarose was prepared by adding α-HA-agarose (Sapphire Bioscience) to parasite lysates, prepared by sonication in 1% Triton X-100/PBS, for 1 h before extensive washing in same,[13]. PEXEL cleavage assays (20 µl total volume) consisted of 0.2 µl PMV-agarose in digest buffer (25 mM Tris, 25 mM MES, pH 6.4) with 1.5 µM FRET peptide substrate (DABCYL-[…]-E-EDANS, DABCYL-[…]-E-EDANS, LifeTein; DABCYL-[…]-E-EDANS, DABCYL-[…]-E-EDANS; Mimotopes) ± inhibitor. Samples were excited at 340 nm and fluorescence emission measured at 492 nm using an Envision fluorescence plate reader (Perkin-Elmer) heated to 37°C for 150 min. Samples were shaken between measurements. For determination of the peptide cleavage position by PvPMVHA, the fluorogenic peptide (DABCYL-[…]-E-EDANS), representing the wild-type KAHRP PEXEL sequence, was incubated with and without PvPMVHA at 37°C for 48 h. Products of the incubation were detected by a molecular formula algorithm using an Agilent 6200 TOF/6500 series mass spectrometer.

[1] = tested on: Human Foreskin Fibroblasts (HFF); assay: Toxicity against Human Foreskin Fibroblasts; format: cell-based; details: Fibroblast
HEpG2 cells = assay: Toxicity against human HEpG2 cells; format: cell-based; details: toxicity against human cell line
[2] = tested on: cytoadherence of infected erythrocytes to CSA; assay: Static adhesion of infected erythrocytes to chondroitin sulfate A (CSA); format: cell-based, Plasmodium falciparum; details: static conditions
Experimental: Adhesion assays were performed as described previously,[33]. Briefly, CSA (Sigma) was spotted at 50 µg/ml in triplicate into petri dishes, incubated overnight at 4°C, and blocked in 1% casein/PBS for 2 h. Inhibitor-treated erythrocytes were added to CSA-coated dishes and incubated for 45 min at 37°C. Dishes were washed four times with 5 ml warm RPMI-HEPES, fixed in 2% paraformaldehyde for 2 h, stained with 10% Giemsa for 15 min, and the number of adherent erythrocytes per mm^2 quantified by light microscopy counts. Assays were performed in triplicate.

[3] = biological target: PMV in P. falciparum–infected erythrocytes (Plasmodium falciparum, UniProt Q8I6Z5); assay: PEXEL processing of GFP reporters in parasites by immunoblot; format: cell-based; details: for PEXEL processing of KAHRP-GFP in parasites, in words / PEXEL processing of PfEMP3-GFP in parasites, in words: 5 h treatment, immunoblot; for PEXEL processing of KAHRP-GFP in parasites, in words: 20 and 50 µM; for PEXEL processing of PfEMP3-GFP in parasites, in words: up to 50 µM
Experimental: To assess whether 916 could inhibit PMV in P. falciparum–infected erythrocytes, parasites expressing the PEXEL protein P. falciparum erythrocyte membrane protein 3 (PfEMP3) fused to green fluorescent protein (GFP) were treated with increasing concentrations of inhibitor, and PEXEL processing was evaluated by immunoblot. […] A GFP-only band, representing degraded chimera in the food vacuole, was also observed at ∼26 kDa (Figure 3A).
(§1) Trophozoites (30–34 h) expressing PfEMP3-GFP, KAHRP-GFP, or SERA5s-GFP were magnet-purified (Miltenyi Biotech), incubated with inhibitors in 400 µl total volume at 37°C for 1–5 h, treated with 0.09% saponin containing inhibitor, and washed pellets were solubilized in Laemmli's buffer, boiled for 3 min, and frozen at −20°C. Proteins were separated by SDS-PAGE, transferred to nitrocellulose and blocked in 10% skim milk/PBS-T, and probed with rat α-HA (Roche 3F10; 1∶1,000), mouse α-GFP (Roche; 1∶1,000), rabbit α-Aldolase (1∶1,000), rabbit α-HSP70 (1∶4,000), rabbit α-PfPMV (1∶1,000), or rabbit α-Hyp8 (1∶500) primary antibodies followed by horseradish peroxidase-conjugated secondary antibodies (Silenius) and detected by enhanced chemiluminescence (Amersham).

signal peptidase = assay: Signal peptide cleavage of SERA5s-GFP in parasites by immunoblot; format: cell-based, Plasmodium falciparum; details: for Signal peptide cleavage of SERA5s-GFP, in words: 20 µM for 5 h
Experimental: This protein contains a signal peptide but lacks a PEXEL and is efficiently secreted to the parasitophorous vacuole (Figure S3B).
as §1

PfPMV, sequence (Q8I6Z5 34-590): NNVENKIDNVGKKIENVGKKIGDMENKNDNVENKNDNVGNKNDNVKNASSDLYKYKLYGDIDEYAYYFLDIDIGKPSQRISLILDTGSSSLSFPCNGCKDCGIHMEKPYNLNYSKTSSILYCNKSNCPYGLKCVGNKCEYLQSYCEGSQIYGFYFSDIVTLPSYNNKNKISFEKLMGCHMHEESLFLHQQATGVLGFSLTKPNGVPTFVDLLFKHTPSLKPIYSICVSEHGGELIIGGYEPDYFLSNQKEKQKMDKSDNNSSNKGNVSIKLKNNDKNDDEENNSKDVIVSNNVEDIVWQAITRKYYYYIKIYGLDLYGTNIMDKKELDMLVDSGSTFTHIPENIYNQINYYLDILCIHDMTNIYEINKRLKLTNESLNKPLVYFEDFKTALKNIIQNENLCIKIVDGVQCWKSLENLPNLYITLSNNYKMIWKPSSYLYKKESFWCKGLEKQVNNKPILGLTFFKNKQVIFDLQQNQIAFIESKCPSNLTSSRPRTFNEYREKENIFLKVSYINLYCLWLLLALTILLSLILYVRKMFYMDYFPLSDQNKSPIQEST
PMV in P. falciparum–infected erythrocytes, sequence (Q8I6Z5 whole entry, the tested form may be a part): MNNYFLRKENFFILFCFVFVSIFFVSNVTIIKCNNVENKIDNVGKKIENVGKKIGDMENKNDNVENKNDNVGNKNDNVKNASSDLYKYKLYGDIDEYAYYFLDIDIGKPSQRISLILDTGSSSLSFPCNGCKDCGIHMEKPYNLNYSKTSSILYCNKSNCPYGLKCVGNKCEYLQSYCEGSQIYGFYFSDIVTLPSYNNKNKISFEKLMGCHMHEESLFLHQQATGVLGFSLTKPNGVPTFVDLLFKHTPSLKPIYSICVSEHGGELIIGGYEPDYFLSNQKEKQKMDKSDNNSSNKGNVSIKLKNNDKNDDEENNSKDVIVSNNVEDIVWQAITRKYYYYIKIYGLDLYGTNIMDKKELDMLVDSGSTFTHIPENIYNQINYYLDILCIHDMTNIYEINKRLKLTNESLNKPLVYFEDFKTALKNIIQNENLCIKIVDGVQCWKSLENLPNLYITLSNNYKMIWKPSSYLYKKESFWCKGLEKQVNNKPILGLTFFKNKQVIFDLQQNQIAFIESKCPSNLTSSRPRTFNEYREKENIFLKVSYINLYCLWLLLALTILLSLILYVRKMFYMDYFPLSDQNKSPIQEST

Row | Compound | IC50 (PfPMV; IC50 PfPMV, PfPMVHA) [nM] | IC50 [1] [nM] | IC50 (HEpG2 cells) [nM] | Effect on adhesion to CSA, in words [2] | PEXEL processing of KAHRP-GFP in parasites, in words [3] | PEXEL processing of PfEMP3-GFP in parasites, in words [3] | Signal peptide cleavage of SERA5s-GFP, in words (signal peptidase) | Effect on PMV or signal peptidase activity in parasites, in words (signal peptidase; concentrations up to 50 µM) | IC50 (PfPMV; IC50 PfPMVHA, PEXEL cleavage) [nM] | Reduction of adhesion to CSA ([2]; compared to DMSO) [%] | Inhibition of PfEMP3-GFP cleavage after 2 to 5 h of treatment ([3]; 2 to 5 h) | Inhibition of PfEMP3-GFP cleavage after 1 h of treatment ([3]; 1 h) | inhibition at 20 µM ([3]; read-out: Rescue of PfEMP3-GFP cleavage inhibition in inhibitor-free medium) [%]
1 | CC[C@H](C)[C@H](NC(=O)[C@@H](NC(=O)[C@H](CCCNC(=N)N)NS(=O)(=O)Cc1ccccc1)C(C)C)[C@@H](O)CC(=O)NCCc1ccccc1 [compound 025, PhCH2SO2Arg-Val-AHMHpA-NH(CH2)2Ph . TFA] | 1110 | > 100000 | > 100000 | no effect | no effect | no effect | no defect | no affect | – | – | – | – | –
2 | CC(C)C[C@H](NC(=O)[C@@H](NC(=O)[C@H](CCCNC(=N)N)NS(=O)(=O)Cc1ccccc1)C(C)C)[C@@H](O)CC(=O)NCCc1ccccc1 [compound 916, PhCH2SO2-Arg(NH2)-Val-Sta-NH(CH2)2Ph .TFA] | – | > 100000 | > 100000 | – | accumulation of both uncleaved (black arrow) and signal peptide-cleaved (red arrow) protein | dose-dependent increase in unprocessed PfEMP3-GFP | no defect; also recorded: did not impair processing of the signal peptide | – | 20 | ~50 | uncleaved PfEMP3-GFP increased | No effect | ~50
